How the values were obtained:
Japanese bulrush = experiment: Test Example 2: herbicidal activity, application during weed generation under submerged conditions (Table 17, symbol B); assay type: in vivo, Japanese bulrush (Schoenoplectus juncoides)
In short: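 Mixed weed seedlings in alluvial soil under a 4 cm water layer, greenhouse-grown at 25–30° C. Compound given as a diluted emulsion into the floodwater at the 1–2 leaf stage; response graded after three weeks.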

Chinese sprangletop = experiment: Test Example 3: herbicidal effect by foliage application, Wagner pot (Table 18, symbol D); assay type: in vivo, chinese sprangletop (Leptochloa chinensis)
In short: (§1)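 Plants were sown in alluvial soil held under 0.1–0.5 cm standing water and grown 14 days in a greenhouse at 25–30 °C. An emulsifiable formulation, water-diluted to the set dose, was then sprayed onto the foliage, and effects were scored three weeks later using previously defined criteria.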

rice flat sedge = experiment: Test Example 3: herbicidal effect by foliage application, Wagner pot (Table 18, symbol E); assay type: in vivo, rice flat sedge (Cyperus iria)
In short: as §1

green foxtail = experiment: Test Example 4: herbicidal effect by soil treatment (Table 19, symbol G); assay type: in vivo, green foxtail (Setaria viridis)
In short: (§2)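 Seeds were sown in sterilized diluvial soil and covered with about 1.5 cm of soil. An emulsion formulation diluted with water to a predetermined herbicide amount was sprayed evenly onto the soil surface. Plants grew in a greenhouse at 25° C. to 30° C., and the effect was scored three weeks after application using criteria from an earlier test.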

barnyard grass [1] = experiment: Test Example 4: herbicidal effect by soil treatment (Table 19, symbol H); assay type: in vivo, barnyard grass (Echinochloa crus-galli)
In short: as §2

blackgrass [2] = experiment: Test Example 4: herbicidal effect by soil treatment (Table 19, symbol J); assay type: in vivo, blackgrass (Alopecurus myosuroides)
In short: as §2

Italian ryegrass [3] = experiment: Test Example 4: herbicidal effect by soil treatment (Table 19, symbol K); assay type: in vivo, Italian ryegrass (Lolium multiflorum)
In short: as §2

lambsquarters [4] = experiment: Test Example 4: herbicidal effect by soil treatment (Table 19, symbol O); assay type: in vivo, lambsquarters (Chenopodium album)
In short: as §2

barnyard grass [5] = experiment: Test Example 5: herbicidal effect by foliage application, plastic box (Table 20, symbol H); assay type: in vivo, barnyard grass (Echinochloa crus-galli); settings: foliage application
In short: (§3)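 Plants sown in sterilized diluvial soil and grown 14 days in a greenhouse at 25° C to 30° C, then sprayed on the foliage with the compound's emulsion diluted in water to a predetermined herbicide amount. Injury to weeds and crops scored three weeks after application on a visual rating scale.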

wild oat = experiment: Test Example 5: herbicidal effect by foliage application, plastic box (Table 20, symbol I); assay type: in vivo, wild oat (Avena fatua); settings: foliage application
In short: as §3

blackgrass [6] = experiment: Test Example 5: herbicidal effect by foliage application, plastic box (Table 20, symbol J); assay type: in vivo, blackgrass (Alopecurus myosuroides); settings: foliage application
In short: as §3

Italian ryegrass [7] = experiment: Test Example 5: herbicidal effect by foliage application, plastic box (Table 20, symbol K); assay type: in vivo, Italian ryegrass (Lolium multiflorum); settings: foliage application
In short: as §3

windgrass = experiment: Test Example 5: herbicidal effect by foliage application, plastic box (Table 20, symbol L); assay type: in vivo, windgrass (Apera spica-venti); settings: foliage application
In short: as §3

velvetleaf = experiment: Test Example 5: herbicidal effect by foliage application, plastic box (Table 20, symbol M); assay type: in vivo, velvetleaf (Abutilon theophrasti); settings: foliage application
In short: as §3

lambsquarters [8] = experiment: Test Example 5: herbicidal effect by foliage application, plastic box (Table 20, symbol O); assay type: in vivo, lambsquarters (Chenopodium album); settings: foliage application
In short: as §3

chickweed = experiment: Test Example 5: herbicidal effect by foliage application, plastic box (Table 20, symbol P); assay type: in vivo, common chickweed (Stellaria media); settings: foliage application
In short: as §3

persian speedwell = experiment: Test Example 5: herbicidal effect by foliage application, plastic box (Table 20, symbol R); assay type: in vivo, Persian speedwell (Veronica persica); settings: foliage application
In short: as §3

[9] = amount of applied herbicide 320 g/ha
[10] = 320 g/ha, evaluated 3 weeks after application
[11] = amount of applied herbicide 214 g/ha
[12] = 214 g/ha, three weeks after application

In the case of `CCCC(=O)Oc1c(C)nn(C)c(=O)c1-c1c(-c2ccc(COC)cc2)oc2ccc(C)cc12` [9-062], the “herbicidal effect grade, B: Japanese bulrush” value (Japanese bulrush; application during weed generation under submerged conditions, amount of applied herbicide 320 g/ha) is reported as 3 (Herbicidal rate of 40% or more and less than 70%), the “Herbicidal effect on D (Chinese sprangletop), foliage application” value (Chinese sprangletop; [9]) is reported as 3 (Herbicidal rate of 40% or more and less than 70%) and the “Herbicidal effect on E (rice flat sedge), foliage application” value (rice flat sedge; [9]) is reported as 5 (Herbicidal rate of 90% or more (almost completely withered)). The “G: green foxtail, herbicidal effect grade” value (green foxtail; [9]) was 5 (Herbicidal rate of 90% or more (almost completely withered)), the “H: barnyard grass, herbicidal effect grade” value (“H: barnyard grass” below) (barnyard grass [1]; [9]) was 4 (Herbicidal rate of 70% or more and less than 90%) and the “J: blackgrass, herbicidal effect grade” value (blackgrass [2]; [9]) was 4 (Herbicidal rate of 70% or more and less than 90%). The “K: Italian ryegrass, herbicidal effect grade” value (shortened to “K: Italian ryegrass”) (Italian ryegrass [3]; [9]) was 5 (Herbicidal rate of 90% or more (almost completely withered)), the “O: lambsquarters, herbicidal effect grade” value (shortened to “O: lambsquarters”) (lambsquarters [4]; [9]) was 4 (Herbicidal rate of 70% or more and less than 90%) and the “H (barnyard grass) herbicidal effect grade” value (barnyard grass [5]; [10]) was 4 (Herbicidal rate of 70% or more and less than 90%). For the same molecule, the “I (wild oat) herbicidal effect grade” value (wild oat; [10]) was 0 (Herbicidal rate of 5% or less (almost no effect)), the “J (blackgrass) herbicidal effect grade” value (blackgrass [6]; [10]) was 4 (Herbicidal rate of 70% or more and less than 90%) and the “K (Italian ryegrass) herbicidal effect grade” value (Italian ryegrass [7]; [10]) was 5 (Herbicidal rate of 90% or more (almost completely withered)). For the same molecule, the “L (windgrass) herbicidal effect grade” value (windgrass; [10]) was 0 (Herbicidal rate of 5% or less (almost no effect)), the “M (velvetleaf) herbicidal effect grade” value (velvetleaf; [10]) was 5 (Herbicidal rate of 90% or more (almost completely withered)) and the “O (lambsquarters) herbicidal effect grade” value (lambsquarters [8]; [10]) was 5 (Herbicidal rate of 90% or more (almost completely withered)). For the same molecule, the “P (chickweed) herbicidal effect grade” value (chickweed; [10]) was 5 (Herbicidal rate of 90% or more (almost completely withered)) and the “R (persian speedwell) herbicidal effect grade” value (persian speedwell; [10]) was 5 (Herbicidal rate of 90% or more (almost completely withered)).
In the case of `COc1ccc2c(-c3c(O)c(C)nn(C)c3=O)c(-c3ccccc3OC)sc2c1` [Compound No. 3-065, 5-hydroxy-4-(6-methoxy-2-(2-methoxyphenyl)benzo[b]thiophen-3-yl)-2,6-dimethylpyridazin-3(2H)-one], the “herbicidal effect rating, B: Japanese bulrush” value (Japanese bulrush; AAH 214 g/ha, application during weed generation, submerged conditions) is reported as 1 (Herbicidal rate of 5% or more and less than 20%), the “herbicidal effect on Chinese sprangletop (D)” value (Chinese sprangletop; 214 g/ha) is reported as 2 (Herbicidal rate of 20% or more and less than 40%) and the “herbicidal effect on rice flat sedge (E)” value (rice flat sedge; 214 g/ha) is reported as 5 (Herbicidal rate of 90% or more (almost completely withered)). For the same molecule, the “G: green foxtail, herbicidal effect grade” value (green foxtail; [11]) was 5 (Herbicidal rate of 90% or more (almost completely withered)), the “H: barnyard grass” value (barnyard grass [1]; [11]) was 5 (Herbicidal rate of 90% or more (almost completely withered)) and the “J: blackgrass, herbicidal effect grade” value (blackgrass [2]; [11]) was 3 (Herbicidal rate of 40% or more and less than 70%). The “K: Italian ryegrass” value (Italian ryegrass [3]; [11]) was 3 (Herbicidal rate of 40% or more and less than 70%), the “O: lambsquarters” value (lambsquarters [4]; [11]) was 4 (Herbicidal rate of 70% or more and less than 90%) and the “H: barnyard grass” value (barnyard grass [5]; [12]) was 5 (Herbicidal rate of 90% or more (almost completely withered)). The “I: wild oat, herbicidal effect grade” value (wild oat; [12]) was 4 (Herbicidal rate of 70% or more and less than 90%), the “J: blackgrass, herbicidal effect grade” value (blackgrass [6]; [12]) was 5 (Herbicidal rate of 90% or more (almost completely withered)) and the “K: Italian ryegrass” value (Italian ryegrass [7]; [12]) was 4 (Herbicidal rate of 70% or more and less than 90%). The “L: windgrass, herbicidal effect grade” value (windgrass; [12]) was 4 (Herbicidal rate of 70% or more and less than 90%), the “M: velvetleaf, herbicidal effect grade” value (velvetleaf; [12]) was 5 (Herbicidal rate of 90% or more (almost completely withered)) and the “O: lambsquarters” value (lambsquarters [8]; [12]) was 3 (Herbicidal rate of 40% or more and less than 70%). For the same molecule, the “P: chickweed, herbicidal effect grade” value (chickweed; [12]) was 5 (Herbicidal rate of 90% or more (almost completely withered)) and the “R: persian speedwell, herbicidal effect grade” value (persian speedwell; [12]) was 5 (Herbicidal rate of 90% or more (almost completely withered)).

From US20230085307A1, “PYRIDAZINONE COMPOUND AND HERBICIDE” (NISSAN CHEMICAL CORPORATION, priority 2019, published 2023)
